How the values were obtained:
[1] = system: SC tissue; experiment: SC toxicity at the injection site (Example 10)
Procedure: The same studies were carried out with a polymer according to the invention coupled with Cyanine 5.5.

[2] = Pharmacokinetics and biodistribution of radiolabelled PTX; conditions: mice, liver, kidneys, spleen, lungs; radiolabel
Procedure: 7 week old female BALB/c OlaHsd mice (˜22 g; Envigo, France) were used. […] Each group consisted of 40 mice divided into 10 different times (0.25 h, 0.5 h, 1 h, 2 h, 4 h, 7 h, 24 h, 48 h, 96 h and 144 h) leading to 4 mice per group. […] Livers, kidneys, spleens, lungs and some SC tissue at the injection site were also collected. All the samples were stored in a freezer (−20° C.) for a maximum of one week before analysis. For the radioactivity count, approximately 100 μl of plasma and 100 mg of each organ/tissue were removed and weighed with precision. The organs were first dissolved by adding 1 ml of soluble solution (PerkinElmer, USA) and the samples were placed overnight in an oven at 60° C. They were then whitewashed by twice adding 100 μL of 30% H2O2 (weight/volume) and heated for 30 min at 60° C. in an oven. Finally, the treated plasma and organ samples were mixed with Hionic-FluorUltimagold (PerkinElmer, USA) and the radioactivity was measured with a versatile LS 6500 scintillation counter (Beckman Coulter).
Pharmacokinetic and biodistribution studies were also conducted for the polyacrylamide compound containing paclitaxel. Paclitaxel was radiolabelled and coupled to the polymer by an ester link (stable link) so that it could be followed in the blood and in various organs (liver, lungs, kidneys, spleen, SC tissue). […]

Row | Compound | Toxicity at the injection site ([1]; SC administration at 30 mg/kg (paclitaxel equivalent) once a day for 4 days, FIG. 12) | Elimination (biodistribution) [2] | SC toxicity (necrosis of SC tissue) ([1]; in vivo, sc, 0.8 mg/kg)
1 | CC(=O)O[C@H]1C(=O)[C@@]2(C)[C@H]([C@H](OC(=O)c3ccccc3)[C@]3(O)C[C@H](OC(=O)[C@H](O)[C@@H](NC(=O)c4ccccc4)c4ccccc4)C(C)=C1C3(C)C)[C@]1(OC(C)=O)CO[C@@H]1C[C@@H]2O [paclitaxel] | local toxicity effects | predominantly hepatic elimination | 
2 | Cyanine 5.5 |  |  | very necrotizing for SC tissue

From patent US12150996B2, “Polymeric prodrugs and subcutaneous and/or intramuscular administration thereof” (priority 2017, dated 2024)
